Test: xn = mol fraction of the nth substance listed

O=S(=O)([O-])[O-].[NH3+]O.[NH3+]O + O
viscosity [mPa·s], 101 kPa
Details | x1 = 0.001 | x1 = 0.002 | x1 = 0.006 | x1 = 0.012 | x1 = 0.019 | x1 = 0.027 | x1 = 0.035 | x1 = 0.045
293.15 K | 1.022 | 1.046 | 1.134 | 1.264 | 1.435 | 1.678 | 1.925 | 2.198
298.15 K | 0.905 | 0.931 | 0.995 | 1.121 | 1.277 | 1.481 | 1.706 | 1.983
303.15 K | 0.811 | 0.831 | 0.89 | 1.006 | 1.148 | 1.317 | 1.523 | 1.849
313.15 K | 0.666 | 0.683 | 0.734 | 0.825 | 0.937 | 1.075 | 1.244 | 1.508
323.15 K | 0.559 | 0.573 | 0.616 | 0.693 | 0.791 | 0.901 | 1.04 | 1.247

OC(C(F)(F)F)C(F)(F)F + O
viscosity [mPa·s], 101 kPa
Details | 298.15 K | 303.15 K | 313.15 K | 323.15 K
x1 = 0.002095 | 0.921 | 0.824 | 0.671 | 0.559
x1 = 0.004456 | 0.959 | 0.857 | 0.691 | 0.575
x1 = 0.008636 | 1.027 | 0.911 | 0.73 | 0.602
x1 = 0.01141 | 1.076 | 0.951 | 0.756 | 0.621
x1 = 0.0205 | 1.22 | 1.069 | 0.84 | 0.682
x1 = 0.0264 | 1.31 | 1.147 | 0.897 | 0.727
x1 = 0.04493 | 1.583 | 1.383 | 1.075 | 0.869
x1 = 0.06872 | 1.854 | 1.606 | 1.246 | 0.997
x1 = 0.09912 | 2.077 | 1.797 | 1.377 | 1.094
x1 = 0.1716 | 2.251 | 1.93 | 1.463 | 1.147
x1 = 0.2057 | 2.246 | 1.934 | 1.459 | 1.142
x1 = 0.3052 | 2.102 | 1.83 | 1.4 | 1.086
x1 = 0.4208 | 1.879 | 1.633 | 1.262 | 1.004
x1 = 0.5004 | 1.76 | 1.541 | 1.202 | 0.964
x1 = 0.6306 | 1.636 | 1.433 | 1.119 | 0.907
x1 = 0.6778 | 1.606 | 1.405 | 1.102 | 0.883
x1 = 0.7422 | 1.585 | 1.39 | 1.077 | 0.864
x1 = 0.8064 | 1.575 | 1.374 | 1.049 | 0.849
x1 = 0.8456 | 1.575 | 1.372 | 1.045 | 0.833

Oc1ccccc1 + O
viscosity [mPa·s], 101 kPa
Details | 293.15 K | 303.15 K | 313.15 K | 323.15 K
x1 = 0.004 | 1.056 | 0.8342 | 0.6816 | 0.5696
x1 = 0.008 | 1.107 | 0.8703 | 0.7185 | 0.5898
x1 = 0.01 | 1.16 | 0.9071 | 0.737 | 0.611
x1 = 0.02 | 1.215 | 0.9485 | 0.7664 | 0.634
x1 = 0.021 | – | – | – | 0.66
x1 = 0.31 | – | 2.972 | 2.253 | 1.775
x1 = 0.36 | 4.372 | 3.153 | 2.383 | 1.858
x1 = 0.43 | 4.731 | 3.393 | 2.553 | 1.981
x1 = 0.52 | 5.273 | 3.742 | 2.792 | 2.164
x1 = 0.63 | 6.146 | 4.288 | 3.161 | 2.42
x1 = 0.78 | – | – | 3.77 | –

Oc1ccccc1 + O=C1CCCCC1
298.15 K, 101.3 kPa
Details | viscosity [mPa·s]
x2 = 0.79 | 2.24
x2 = 0.9 | 2.02

Oc1ccccc1 + O=Cc1ccccc1
308.15 K, 101.33 kPa
Details | viscosity [mPa·s]
x2 = 0.107 | 4.318
x2 = 0.303 | 2.944
x2 = 0.39 | 2.642
x2 = 0.499 | 2.401
x2 = 0.595 | 1.989
x2 = 0.706 | 1.55
x2 = 0.904 | 1.2

ClC(Cl)C(Cl)Cl + O=S1(=O)CCCC1
viscosity [mPa·s], 100 kPa
Details | x2 = 0.0224 | x2 = 0.1377 | x2 = 0.2568 | x2 = 0.3746 | x2 = 0.4803 | x2 = 0.5855 | x2 = 0.7134 | x2 = 0.8418 | x2 = 0.9751
303.15 K | 1.674 | 2.8 | 3.962 | 5.052 | 5.983 | 6.858 | 7.865 | 8.855 | 9.835
308.15 K | 1.537 | 2.519 | 3.525 | 4.469 | 5.292 | 6.043 | 6.927 | 7.779 | 8.631
313.15 K | 1.417 | 2.285 | 3.173 | 4.004 | 4.72 | 5.396 | 6.171 | 6.937 | 7.691

CNc1ccccc1 + O=[N+]([O-])c1ccccc1
Details | viscosity [mPa·s]
303.15 K, 101.3 kPa, x1 = 0.5 | 1.52

Oc1ccccc1 + O=[N+]([O-])c1ccccc1
293.15 K, 101 kPa
Details | viscosity [mPa·s]
x1 = 0.0537 | 1.975
x1 = 0.113 | 2.041
x1 = 0.2245 | 2.208
x1 = 0.3306 | 2.46
x1 = 0.4448 | 2.845
x1 = 0.5641 | 3.53
x1 = 0.6497 | 4.19
x1 = 0.7623 | 5.4
x1 = 0.8785 | 7.59

C1N2CN3CN1CN(C2)C3 + [2H]O[2H]
viscosity [mPa·s], 101 kPa
Details | x1 = 0.004002 | x1 = 0.007971 | x1 = 0.01158 | x1 = 0.01549 | x1 = 0.01969
293.15 K | 1.217 | 1.252 | 1.311 | 1.396 | 1.515
298.15 K | 1.106 | 1.141 | 1.189 | 1.258 | 1.35
300.15 K | 1.007 | 1.036 | 1.077 | 1.135 | 1.219
305.15 K | 0.92 | 0.962 | 1.002 | 1.049 | 1.108
